Laboratory results from ChEMBL document CHEMBL5634145, “Discovery of novel amidobenzimidazole derivatives as orally available small molecule modulators of stimulator of interferon genes for cancer immunotherapy” (Eur J Med Chem, 2023).

How the values were obtained:
[1] = biological target: Stimulator of interferon genes protein (Homo sapiens, UniProt Q86WV6); experiment: Agonist activity at STING in wild type human THP1-Dual cells assessed as increase in IRF-mediated immune response incubated for 24 hrs by QUANTI-Luc assay; format: cell-based
Stimulator of interferon genes protein, sequence (Q86WV6 whole entry): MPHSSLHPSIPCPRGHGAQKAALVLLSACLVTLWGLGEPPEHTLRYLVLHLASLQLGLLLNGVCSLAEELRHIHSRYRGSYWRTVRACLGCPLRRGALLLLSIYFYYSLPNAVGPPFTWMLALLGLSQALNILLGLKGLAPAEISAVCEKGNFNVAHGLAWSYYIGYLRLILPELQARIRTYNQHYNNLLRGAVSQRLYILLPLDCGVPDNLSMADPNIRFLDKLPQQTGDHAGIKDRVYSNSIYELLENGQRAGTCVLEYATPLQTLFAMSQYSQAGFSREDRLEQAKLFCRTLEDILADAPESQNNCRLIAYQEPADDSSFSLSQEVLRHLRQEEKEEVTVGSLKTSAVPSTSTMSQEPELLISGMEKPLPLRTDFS

[2] = Cytotoxicity against wild type human THP1-Dual cells assessed as cell viability incubated for 24 hrs by CellTiter 96 aqueous one solution assay relative to control; format: toxicity, cell-based; set-up: concentration or dose not given beside the values; details: read-out: Activity
[3] = Cytotoxicity against human THP1-Dual KO-STING cells assessed as cell viability incubated for 24 hrs by CellTiter 96 aqueous one solution assay relative to control; format: toxicity, cell-based; set-up: concentration or dose not given beside the values; details: read-out: Activity
[4] = Agonist activity at STING (unknown origin)

Row | SMILES | EC50 [1] [µM] | viability at 24 h [2] [%] | viability at 24 h [3] [%] | EC50 [4] [µM]
1 | CCn1nc(C)cc1C(=O)Nc1nc2cc(C(N)=O)ccc2n1CCCCn1c(NC(=O)c2cc(C)nn2CC)nc2cc(C(N)=O)ccc21 | 9.2 | 101 | 117 | –
2 | Nc1nc2c(ncn2[C@@H]2O[C@@H]3COP(=O)(O)O[C@H]4[C@@H](O)[C@H](n5cnc6c(N)ncnc65)O[C@@H]4COP(=O)(O)O[C@H]3[C@H]2O)c(=O)[nH]1 | – | 87 | 97.2 | –
3 | CCn1nc(C)cc1C(=O)/N=c1\[nH]c2cc(C(N)=O)ccc2n1C[C@@H](O)c1ccccc1 | – | – | – | 102
4 | CCn1nc(C)cc1C(=O)Nc1nc2cc(C(N)=O)ccc2n1CCCCNC(=O)OC(C)(C)C | 19.6 | 69 | 105 | –
5 | CC(C)(C)OC(=O)NCCCCn1c(NC(=O)c2ccc(F)nc2)nc2cc(C(N)=O)ccc21 | – | 102 | 107 | –
6 | CCc1ncccc1C(=O)Nc1nc2cc(C(N)=O)ccc2n1CCCCNC(=O)OC(C)(C)C | – | 89.2 | 94.7 | –
7 | Cc1ncccc1C(=O)Nc1nc2cc(C(N)=O)ccc2n1CCCCNC(=O)c1ccccc1 | – | 101 | 93.8 | –
8 | Cc1ncccc1C(=O)Nc1nc2cc(C(N)=O)ccc2n1CCCCCN | – | 110 | 99.3 | –
9 | CC(C)(C)OC(=O)NCCCCn1c(NC(=O)c2cccnc2F)nc2cc(C(N)=O)ccc21 | – | 107 | 108 | –
10 | COc1cc(C(N)=O)cc2nc(NC(=O)c3ccc(C(F)(F)F)nc3C)n(C/C=C/CNC(=O)OC(C)(C)C)c12 | – | 87.5 | 107 | –
11 | CC(C)(C)OC(=O)NCCCCn1c(NC(=O)c2ccncc2)nc2cc(C(N)=O)ccc21 | – | 86.9 | 90.6 | –
12 | Cc1ccncc1C(=O)Nc1nc2cc(C(N)=O)ccc2n1CCCCNC(=O)OC(C)(C)C | – | 88.5 | 87.8 | –
13 | CC(C)(C)OC(=O)NCCCCn1c(NC(=O)c2cccnc2Cl)nc2cc(C(N)=O)ccc21 | – | 105 | 100 | –
14 | Cc1ncccc1C(=O)Nc1nc2cc(C(N)=O)ccc2n1CCCCCNC(=O)OC(C)(C)C | – | 92.2 | 92 | –
15 | Cc1nc(C(F)(F)F)ccc1C(=O)Nc1nc2cc(C(N)=O)ccc2n1CCCCNC(=O)OC(C)(C)C | 29.7 | 106 | 97.5 | –
16 | CC(C)(C)OC(=O)NCCCCn1c(NC(=O)c2cccnc2C(F)(F)F)nc2cc(C(N)=O)ccc21 | – | 108 | 102 | –
